Data as given in patent US7196115B2, “Pharmaceutical composition containing brevifoliol for use in chemotherapeutic treatment of human beings, method therefor” (Council of Scientific and Industrial Research, priority 2002, dated 2007).
In brackets after ≈: the same amount, converted by molar mass. Where two headings read alike, the source gives them in different places.

Columns and labels:
[1] = test system: WRL-68 liver cancer cells; assay: Soft agar assay for colony formation (clonogenic assay); details: for IC90: Homo sapiens, WRL68, read-out: Cytotoxic properties (IC 90) WRL-68
Protocol: (§1) As a part of the studies on the isolation of anticancer compounds a number of taxanes were isolated from the needles of the plant Taxus wallichiana and tested for their anti-cancer properties against six human cancer cell lines in-vitro. The bioactivity testing was done at two stages. In the initial step, MTT assay was performed from which the inhibitory concentration (IC90) the concentration (μg/mL) of the taxanes required for 90% inhibition of cell growth was deduced. […] The MTT assay cannot discriminate between growth inhibition and cell death; it is an overall measurement of cell proliferation (Woerdenbag et al., 1993; J.Nat.Prod. 56 (6): 849–856). Therefore the IC90 data obtained by the MTT assay may overestimate the cell killing activity of a compound. […] Persons skilled in the art of anti-cancer drug discovery can perform both these assays.
(§2) The clonogenic assay for tumor cells which determines the actual cell death was performed to determine the cytotoxic potential of test compounds. The principle of clonogenic assay is to investigate the ability of an individual cell to form a colony on a soft agar plate containing various concentrations of test compounds.
(§3) Cells not able to form colonies are considered clonogenically dead (Beekman et al 1997; J.Nat.Prod. 60(4): 325–330). The concentration of test compound resulting in […] was denoted as IC90 and was used as a parameter for cytotoxicity. The assay was performed as described previously except that the test compounds were added into the top soft agar and the cells were plated out to form colonies. Anthracycline derivative doxorubicin and microtubule depolymerization inhibitor paclitaxel (Sigma Chem. Co., St. Loius, USA) both established anticancer agents were included as standard reference drugs.

[2] = test system: KB-403 mouth cancer cells
Protocol: as §1
(§4) The following six human cancer lines were procured from the Cell Repository of the National Center for Cell Sciences (NCSS) at Pune. Their corresponding ATCC No. and the organ from which they were isolated are also mentioned in Table 1 below:
(§5) Cytotoxicity testing in vitro was done by the method of Woerdenbag et al.,1993; J.Nat.Prod. 56 (6): 849–856). 2×10^3 cells/well were incubated in the 5% CO2 incubator for 24 h to enable them to adhere properly to the 96 well polysterene microplate (Grenier, Germany). Test compounds dissolved in 100% DMSO (Merck,Germany) in at least five doses were added and left for 6 h after which the compound plus media was replaced with fresh media and the cells were incubated for another 48 h in the CO2 incubator at 37° C. […] Then, 10 μl MTT [3-(4,5-dimethylthiazol-2-yl)-2,5-diphenyltetrazolium bromide; Sigma M 2128] was added, and plates were incubated at 37° C. for 4 h. 100 μl dimethyl sulfoxide (DMSO, Merck, Germany) were added to all wells and mixed thoroughly to dissolve the dark blue crystals. After a few minutes at room temperature to ensure that all crystals were dissolved, the plates were read on a SpectraMax 190 Microplate Elisa reader (Molecular Devices Inc., USA), at 570 nm. Plates were normally read within 1 h of adding the DMSO. The experiment was done in triplicate and the inhibitory concentration (IC) values were calculated as follows: % inhibition=[1-OD (570 nm) of sample well/OD (570 nm) of control well]×100. IC90 is the concentration μg/mL required for 90% inhibition of cell growth as compared to that of untreated control.

[3] = test system: WRL-68 liver cancer cells; assay: In-vitro anticancer MTT assay; details: for IC90: Homo sapiens, WRL68, read-out: Cytotoxic properties (IC 90) WRL-68
Protocol: as §1, §4, §5

[4] = test system: KB-403 mouth cancer cells; remark: listed apart in the source
Protocol: as §1, §2, §3

PA-1 ovary cancer cells [5] = assay: Soft agar assay for colony formation (clonogenic assay); type: cell-based, human; details: colony formation on soft agar, compound in top soft agar; for IC90: Homo sapiens, read-out: Cytotoxic properties (IC 90) PA-1
Description: (§6) The bioactivity testing was done at two stages.

[6] = test system: COLO-320DM colon cancer cells; assay: as above; type: cell-based, human; details: colony formation on soft agar, compound in top soft agar; for IC90: Homo sapiens, COLO 320DM, read-out: Cytotoxic properties (IC 90) COLO-320 DM
Description: as §6

[7] = test system: Caco-2 colon cancer cells; assay: as above; type: cell-based, human; details: compound in top soft agar; for IC90: Homo sapiens, Caco-2, colony formation on soft agar, read-out: Cytotoxic properties (IC 90) Caco-2; for Cytotoxic properties (IC 90) Caco-2: colony formation on soft agar
Description: as §6

[8] = test system: MCF-7 breast cancer cells; assay: as above; type: cell-based, human; details: compound in top soft agar; for IC90: Homo sapiens, MCF7, colony formation on soft agar, read-out: Cytotoxic properties (IC 90) MCF-7; for Cytotoxic properties (IC 90) MCF-7: colony formation on soft agar
Description: as §6

PA-1 ovary cancer cells [9] = assay: In-vitro anticancer MTT assay; type: cell-based, human; details: for IC90: Homo sapiens, read-out: Cytotoxic properties (IC 90) PA-1; for IC90 / Cytotoxic properties (IC 90) PA-1: MTT assay, 6 h exposure, then 48 h in fresh media, 90% inhibition of cell growth
Description: as §6

[10] = test system: COLO-320DM colon cancer cells; assay: In-vitro anticancer MTT assay; type: cell-based, human; details: 6 h exposure, then 48 h in fresh media, 90% inhibition of cell growth; for IC90: Homo sapiens, COLO 320DM, read-out: Cytotoxic properties (IC 90) COLO-320 DM
Description: as §6

[11] = test system: Caco-2 colon cancer cells; assay: In-vitro anticancer MTT assay; type: cell-based, human; details: for IC90: Homo sapiens
Description: as §6

[12] = test system: MCF-7 breast cancer cells; assay: In-vitro anticancer MTT assay; type: cell-based, human; details: for IC90: Homo sapiens, MCF7, read-out: Cytotoxic properties (IC 90) MCF-7
Description: as §6

[13] = Caco-2, MTT assay, 6 h exposure, then 48 h in fresh media, 90% inhibition of cell growth, read-out: Cytotoxic properties (IC 90) Caco-2
[14] = MTT assay, 6 h exposure, then 48 h in fresh media, 90% inhibition of cell growth
[15] = clonogenic assay, colony formation on soft agar, compound in top soft agar

Molecule | IC90 [1] [µg/mL] | Cytotoxic properties (IC 90) KB-403 [2] [µg/mL] | IC90 [3] [µg/mL] | IC90 (PA-1 ovary cancer cells [5]) [µg/mL] | IC90 [6] [µg/mL] | IC90 [7] [µg/mL] | IC90 [8] [µg/mL] | IC90 (PA-1 ovary cancer cells [9]) [µg/mL] | IC90 [10] [µg/mL] | IC90 [12, 14] [µg/mL] | Cytotoxic properties (IC 90) KB-403 [2, 14] [µg/mL] | Cytotoxic properties (IC 90) KB-403 [4, 15] [µg/mL] | Cytotoxic properties (IC 90) Caco-2 [7] [µg/mL] | Cytotoxic properties (IC 90) Caco-2 [11, 14] [µg/mL] | also measured
CC(=O)O[C@H]1C(=O)[C@@]2(C)[C@H]([C@H](OC(=O)c3ccccc3)[C@]3(O)C[C@H](OC(=O)[C@H](O)[C@@H](NC(=O)c4ccccc4)c4ccccc4)C(C)=C1C3(C)C)[C@]1(OC(C)=O)CO[C@@H]1C[C@@H]2O [Taxol (Std), taxol, reference compound] | 6.3 (≈ 7.38 µM) | 0.047 | 2.5 (≈ 2.93 µM) | 1.47 (≈ 1.72 µM) | 0.8 (≈ 0.937 µM) | 1.99 (≈ 2.33 µM) | 1.99 (≈ 2.33 µM) | 0.9 (≈ 1.05 µM) | 0.01 (≈ 0.0117 µM) | 0.85 (≈ 0.995 µM) | – | – | – | – | Cytotoxic properties (IC 90) KB-403 [4]: 7.94 µg/mL; IC90 [11, 13]: 0.065 µg/mL (≈ 0.0761 µM)
C=C1C2C[C@]3(C(C)(C)O)CC(O)C(C)=C3[C@@H](OC(=O)c3ccccc3)[C@H](OC(C)=O)[C@]2(C)[C@@H](OC(C)=O)C[C@@H]1O (some centres unmarked) [Brevifoliol, brevifoliol] | 15.8 (≈ 28.5 µM) | – | > 10 | 7.94 (≈ 14.3 µM) | 1 (≈ 1.8 µM) | 0.31 (≈ 0.557 µM) | 1.99 (≈ 3.57 µM) | 6 (≈ 10.8 µM) | 0.1 (≈ 0.18 µM) | 0.004 (≈ 0.00719 µM) | 0.035 | 0.398 | – | – | activity against KB-403 cancer cells, in words ([2]; summary of the bioassay data): highly inhibitory; activity against WRL-68 liver cancer cells, in words ([3]; summary of Table 2): active against all cancer cell lines except liver cancer (WRL-68); activity against PA-1 cancer cells, in words (PA-1 ovary cancer cells [9]; summary of the bioassay data): highly inhibitory; IC90 ([11]; Caco-2, read-out: Cytotoxic properties (IC 90) Caco-2): 0.85 µg/mL (≈ 1.53 µM); activity against Caco-2 cancer cells, in words ([11]; summary of the bioassay data): highly inhibitory; activity against MCF-7 cancer cells, in words ([12]; summary of the bioassay data): highly inhibitory
C=C1[C@@H](OC(=O)/C=C/c2ccccc2)C[C@H](OC(C)=O)[C@]2(C)[C@@H]1C[C@@H]1C[C@H](OC(C)=O)C(C)=C([C@@H](OC(C)=O)[C@@H]2OC(C)=O)C1(C)C [2-deacetoxy taxinine J] | – | – | – | – | – | – | – | – | – | – | 3.5 | 28.18 | 0.25 | 0.009 | Cytotoxic properties (IC 90) COLO-320 DM [6]: 10.0 µg/mL; Cytotoxic properties (IC 90) MCF-7 [8]: 7.94 µg/mL; Cytotoxic properties (IC 90) COLO-320 DM [10]: 1.0 µg/mL; Cytotoxic properties (IC 90) MCF-7 [12, 14]: 6.5 µg/mL
CC(=O)O[C@H]1C[C@H]2OC[C@@]2(OC(C)=O)[C@H]2[C@H](OC(C)=O)[C@]3(C(C)(C)O)C[C@H](O)C(C)=C3[C@@H](O)[C@H](OC(C)=O)[C@]12C [10,13,deacetyl abeobaccatin IV] | – | – | – | – | – | – | – | – | – | – | >10.0 | – | – | – | Cytotoxic properties (IC 90) MCF-7 [12]: >10.0 µg/mL
C=C1[C@H]2C[C@@H]3C[C@H](OC(C)=O)C(C)=C([C@@H](OC(C)=O)[C@H](OC(C)=O)[C@]2(C)[C@@H](OC(C)=O)C[C@@H]1O)C3(C)C [2-deacetoxy decinnamoyl taxinine J] | – | – | – | – | – | – | – | – | – | – | 0.01 | 0.11 | 31.82 | 6.4 | Cytotoxic properties (IC 90) WRL-68 [1, 15]: 12.58 µg/mL; Cytotoxic properties (IC 90) WRL-68 [3, 14]: 0.5 µg/mL; Cytotoxic properties (IC 90) PA-1 (PA-1 ovary cancer cells [5]): 15.84 µg/mL; Cytotoxic properties (IC 90) PA-1 (PA-1 ovary cancer cells [9]): 10.0 µg/mL; Cytotoxic properties (IC 90) COLO-320 DM [10]: >10.0 µg/mL
COc1cccc2c1C(=O)c1c(O)c3c(c(O)c1C2=O)C[C@@](O)(C(=O)CO)C[C@@H]3O[C@H]1C[C@H](N)[C@H](O)[C@H](C)O1 [Doxorubicin (Std), doxorubicin, reference compound] | 3.98 (≈ 7.32 µM) | 0.06 | 1 (≈ 1.84 µM) | 10 (≈ 18.4 µM) | 0.1 (≈ 0.184 µM) | 0.079 (≈ 0.145 µM) | 0.8 (≈ 1.47 µM) | 0.5 (≈ 0.92 µM) | 0.08 (≈ 0.147 µM) | 0.01 (≈ 0.0184 µM) | – | – | – | – | IC90 [11, 13]: 0.052 µg/mL (≈ 0.0957 µM)
Acetoxy brevifoliol | – | 10.0 | – | – | – | – | – | – | – | – | – | – | – | – | Cytotoxic properties (IC 90) WRL-68 [1]: 7.0 µg/mL; Cytotoxic properties (IC 90) WRL-68 [3]: 5.0 µg/mL; Cytotoxic properties (IC 90) KB-403 [4]: 1.0 µg/mL
2′-Deacetoxy austrospicatin | – | – | – | – | – | – | – | – | – | – | 4.5 | 0.44 | 3.16 | 1.0 | Cytotoxic properties (IC 90) PA-1 (PA-1 ovary cancer cells [5]): 6.3 µg/mL; Cytotoxic properties (IC 90) MCF-7 [8]: 5.63 µg/mL; Cytotoxic properties (IC 90) PA-1 (PA-1 ovary cancer cells [9]): 4.0 µg/mL; Cytotoxic properties (IC 90) MCF-7 [12, 14]: 3.5 µg/mL
